Where “and” joins values, the source holds several entries; their conditions need not be identical. Identical values can stand only once. Counter-ions that a name gives are not always drawn. Values belong to the compound of their own block, whether it stands above or below them.
What was measured:
[1] = tested on: HCC1187; experiment: In vitro tumor cell proliferation inhibition test (CTG); assay type: cell-based; details: 4-7 days
Procedure: (§1) The cells were subcultured regularly, and those in the logarithmic growth phase were taken for plating. The cells were stained with trypan blue and the viable cells were counted. The cell concentration was adjusted to an appropriate level. The cell suspension was added to each well of the culture plate, and the culture medium without cells was added to the blank control wells. […] The compound working solution was added to the cell culture plate, and DMSO at the same final concentration was added to the solvent control wells. Then the plate was returned to the incubator for 4-7 days of culture. The cell viability was detected according to the instructions of the Promega CellTiter-Glo (CTG) Luminescent Cell Viability Assay Kit (Promega-G7573). […] The IC50 was calculated using the following equation: [formula] • X: log(concentration) • Y: response value, negatively correlated with X • HillSlope: slope factor • Note: […]

[2] = tested on: MDA-MB-468 (Rb-); experiment: as above; assay type: cell-based; details: 4-7 days
Procedure: as §1

[3] = tested on: MDA-MB-453; experiment: as above; assay type: cell-based; details: Homo sapiens, MDA-MB-453, HR-/HER2+ Breast cancer, 4-7 days
Procedure: as §1

[4] = tested on: T47D; experiment: as above; assay type: cell-based; details: HR+/HER2- Breast cancer, 4-7 days
Procedure: as §1

[5] = tested on: MDA-MB-231; experiment: as above; assay type: cell-based; details: 4-7 days
Procedure: as §1

[6] = tested on: xMCF-7/Palbo-R; experiment: as above; assay type: cell-based; details: Breast cancer (acquired resistance to Palbociclib), 4-7 days
Procedure: as §1

[7] = tested on: MCF-7; experiment: as above; assay type: cell-based; details: 4-7 days
Procedure: as §1

[8] = Stability test, samples placed open for 7 days (HPLC and XRPD); assay type: physicochemical; details: for XRPD-7days / Purity (Peak area%) 7 days: open
Text: Subsequently, the samples after 7 days were respectively detected by HPLC and XRPD to determine their chemical and physical stabilities.

[9] = Dynamic vapor sorption (DVS) test; assay type: physicochemical
Procedure: • Instrument: TA Instruments Q5000 SA • Detection method: 20 to 50 mg of the sample was placed in a tared sample basket and automatically weighed, and DVS testing was performed according to the parameters in Table 7: Step Time: 60 min; Equilibration Time per RH%: 1 hour; Total Gas Flow Rate: 200 sccm; Gradient mode: 0%-90%-0% humidity variation, with a humidity variation amount of 10% for each gradient level between 0% and 90%, and gradient endpoint was determined by dm/dt < 0.01% maintained for 10 minutes.

[10] = Stability test, samples placed open for 7 days (HPLC and XRPD); assay type: physicochemical; details: HPLC

IC50 ([1]; Homo sapiens, HCC1187, Triple-negative breast cancer): > 5 µM
IC50 ([2]; Homo sapiens, MDA-MB-468, Breast cancer (primary resistance to Palbociclib)): > 5 µM
IC50 [3]: 0.188 µM
IC50 ([4]; Homo sapiens, T47D): > 5 µM
IC50 ([5]; Homo sapiens, MDA-MB-231, Triple-negative breast cancer): > 5 µM
IC50 [6]: 7.7 µM
IC50 ([7]; Homo sapiens, MCF7, HR+/HER2- Breast cancer): 0.052 µM
SMILES: CC(=O)c1c(C)c2cnc(Nc3ccc(N4CCNCC4)cn3)nc2n(C2CCCC2)c1=O [Palbociclib, reference compound]
Maximum Inhibition Rate ([1]; Triple-negative breast cancer): 11.183%
Maximum Inhibition Rate ([2]; Breast cancer (primary resistance to Palbociclib)): 34% and 34.044%
Maximum Inhibition Rate [4]: 48.850%
Maximum Inhibition Rate ([5]; Triple-negative breast cancer): 41.943%
Maximum Inhibition Rate [6]: 98.367%
Maximum Inhibition Rate ([7]; HR+/HER2- Breast cancer): 96.983%

SMILES: CC(=O)c1c(C)c2cnc(Nc3ccc4c(c3)OC[C@@H]3CN(C5CCN(C)CC5)CCN43)nc2n(C2CCCC2)c1=O [crystalline form B of the hydrochloride salt of compound A]
XRPD-7days ([8]; 40°C /75%RH): Unchanged
Purity (Peak area%) 7 days ([8]; 40°C /75%RH, HPLC): 99.33 Peak area%
chemical stability ([8]; 60 °C, 92.5% RH and 40 °C/75% RH for 7 days, HPLC): chemically stable
XRPD-7days ([8]; 60°C): Unchanged
Purity (Peak area%) 7 days ([8]; 60°C, HPLC): 99.38 Peak area%
XRPD-7days ([8]; 92.5%RH): Unchanged
Purity (Peak area%) 7 days ([8]; 92.5%RH, HPLC): 99.36 Peak area%
crystalline form (XRPD) after 7 days ([8]; under the three conditions 60 °C, 92.5% RH and 40 °C/75% RH): remained unchanged
XRPD pattern / crystalline form after the DVS test ([9]; before vs after DVS test): did not change
Purity (Peak area%) 0 day [10]: 99.31 Peak area%

SMILES: CC(=O)c1c(C)c2cnc(Nc3ccc4c(c3)OC[C@@H]3CN(C5CCN(C)CC5)CCN43)nc2n(C2CCCC2)c1=O [crystalline form C of the benzenesulfonate of compound A]
XRPD-7days ([8]; 40°C /75%RH): remained unchanged
Purity (Peak area%) 7 days ([8]; 40°C /75%RH, HPLC): 98.79 Peak area%
XRPD-7days ([8]; 60°C): remained unchanged
Purity (Peak area%) 7 days ([8]; 60°C, HPLC): 98.89 Peak area%
XRPD-7days ([8]; 92.5%RH): changed into a new crystalline form
Purity (Peak area%) 7 days ([8]; 92.5%RH, HPLC): 98.84 Peak area%
moisture absorption ([9]; DVS, at 80% RH): 1.2%
Purity (Peak area%) 0 day [10]: 98.79 Peak area%

— EP4653445A1, “CDK INHIBITOR AND CRYSTAL FORM OF PHARMACEUTICALLY ACCEPTABLE SALT THEREOF, AND USE THEREOF” (CSPC Zhongqi Pharmaceutical Technology (Shijiazhuang) Co., …, priority 2023, dated 2024)
